Source: ChEMBL document CHEMBL5518186, “Discovery of the cereblon-recruiting tubulin PROTACs effective in overcoming Taxol resistance in vitro and in vivo” (Eur J Med Chem, 2024)
Activity calls are given as the source filed them. No cut-off for these calls is given here.

Experiments:
[1] = tested on: A549/TR; experiment: Induction of cell cycle arrest in human A549/Taxol cells assessed as accumulation of cells at G0/G1 phase at 0.01 uM incubated for 24 hrs by PI staining based flow cytometry analysis (reference value: 77.86%); format: functional
[2] = target: T1, Protein cereblon/Tubulin beta-3 chain (Homo sapiens, UniProt Q13509+Q96SW2); experiment: Protac activity at CRBN/beta3-tubulin in human A549 cells assessed as reduction in beta3-tubulin level at 0.25 uM pretreated with MG-132 followed by compound addition and measured after 24 hrs by immunoblotting analysis; format: cell-based
Target sequence in this assay (Q13509 whole entry, looked up): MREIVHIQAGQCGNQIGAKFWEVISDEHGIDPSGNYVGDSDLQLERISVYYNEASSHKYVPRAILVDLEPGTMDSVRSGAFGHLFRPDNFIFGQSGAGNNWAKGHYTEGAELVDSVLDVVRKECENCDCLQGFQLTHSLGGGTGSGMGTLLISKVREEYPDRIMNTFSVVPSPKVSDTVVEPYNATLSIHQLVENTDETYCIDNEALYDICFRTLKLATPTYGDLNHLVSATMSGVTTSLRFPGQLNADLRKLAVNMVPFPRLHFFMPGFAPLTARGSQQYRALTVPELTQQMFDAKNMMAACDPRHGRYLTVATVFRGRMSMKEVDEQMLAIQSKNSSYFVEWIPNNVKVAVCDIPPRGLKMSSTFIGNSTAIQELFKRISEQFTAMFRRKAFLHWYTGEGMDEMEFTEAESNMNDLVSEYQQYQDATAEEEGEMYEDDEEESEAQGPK
Target sequence in this assay (Q96SW2 whole entry, looked up): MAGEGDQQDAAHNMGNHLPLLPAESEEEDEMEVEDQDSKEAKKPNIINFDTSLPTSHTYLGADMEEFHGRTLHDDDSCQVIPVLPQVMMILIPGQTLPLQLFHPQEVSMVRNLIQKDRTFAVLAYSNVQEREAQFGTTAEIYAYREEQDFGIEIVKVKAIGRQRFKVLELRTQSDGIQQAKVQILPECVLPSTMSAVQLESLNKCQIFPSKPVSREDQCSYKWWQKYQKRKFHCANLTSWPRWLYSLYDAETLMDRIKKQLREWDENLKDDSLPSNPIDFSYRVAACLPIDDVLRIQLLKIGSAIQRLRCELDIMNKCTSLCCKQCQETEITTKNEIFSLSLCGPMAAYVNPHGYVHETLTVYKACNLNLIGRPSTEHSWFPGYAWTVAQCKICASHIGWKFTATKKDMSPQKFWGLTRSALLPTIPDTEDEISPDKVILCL

[3] = tested on: MGC-803; experiment: Antiproliferative activity against human MGC-803 cells incubated for 72 hrs; format: functional, cell-based; conditions: MGC-803, 72 h
[4] = target: T2, Protein cereblon/Tubulin beta (Homo sapiens) (UniProt P68371+Q9H4B7+Q13509+P04350+Q3ZCM7+P07437+Q13885+Q9BVA1+Q9BUF5+Q96SW2+A6NNZ2); experiment: Protac activity at CRBN/beta-tubulin in human MCF7 cells assessed as reduction in beta-tubulin level at 10 to 1000 nM incubated for 48 hrs by immunoblotting analysis; format: cell-based; conditions: dose 10-1000 nM
[5] = target: T3, Protein cereblon-alpha tubulin (Homo sapiens) (UniProt P0DPH7+P68366+Q71U36+P68363+Q9BQE3+Q6PEY2+A6NHL2+Q9NY65+Q96SW2); experiment: Protac activity at CRBN/alpha-tubulin in human A549/Taxol cells assessed as reduction in alpha-tubulin level at 0.25 uM pretreated with pomalidomide for 2 hrs followed by compound addition and measured after 48 hrs by immunoblotting analysis; format: cell-based
[6] = target: Protein cereblon-alpha tubulin; experiment: (§1) Protac activity at CRBN/alpha-tubulin in human A549 cells assessed as reduction in alpha-tubulin level incubated for 48 hrs by immunoblotting analysis; format: cell-based
[7] = target: T3, Protein cereblon-alpha tubulin (Homo sapiens); experiment: as §1; format: cell-based
[8] = target: T3, Protein cereblon-alpha tubulin (Homo sapiens); experiment: Protac activity at CRBN/alpha-tubulin in human HepG2 cells assessed as reduction in alpha-tubulin level at 10 to 1000 nM incubated for 48 hrs by immunoblotting analysis; format: cell-based; conditions: dose 10-1000 nM
[9] = tested on: HeLa; experiment: Antiproliferative activity against human HeLa cells incubated for 72 hrs; format: functional, cell-based
[10] = tested on: HepG2; experiment: Inhibition of cell invasion in human HepG2 cells; format: functional, cell-based
[11] = tested on: A549; experiment: Induction of cell cycle arrest in human A549 cells assessed as accumulation of cells at G2/M phase at 0.01 uM incubated for 24 hrs by PI staining based flow cytometry analysis (reference value: 31.86%); format: functional
[12] = target: T1, Protein cereblon/Tubulin beta-3 chain; experiment: Protac activity at CRBN/beta3-tubulin in human HeLa cells assessed as reduction in beta3-tubulin level at 10 to 1000 nM incubated for 48 hrs by immunoblotting analysis; format: cell-based; conditions: dose 10-1000 nM
Target sequence in this assay (Q13509 whole entry, looked up): as the sequence (Q13509 whole entry, looked up) above
Target sequence in this assay (Q96SW2 whole entry, looked up): as the sequence (Q96SW2 whole entry, looked up) above

[13] = tested on: MCF7; experiment: Inhibition of cell growth in human MCF7 cells incubated for 72 hrs by SRB method; format: functional, cell-based; conditions: MCF7, 72 h
[14] = target: T2, Protein cereblon/Tubulin beta (Homo sapiens); experiment: Protac activity at CRBN/beta-tubulin in human A549 cells assessed as reduction in beta-tubulin level at 0.25 uM after 48 hrs by immunoblotting analysis; format: cell-based; parameters: scale not given: the % may be the effect or the level left
[15] = target: T3, Protein cereblon-alpha tubulin (Homo sapiens); experiment: Protac activity at CRBN/alpha-tubulin in human MCF7 cells assessed as reduction in alpha-tubulin level at 10 to 1000 nM incubated for 48 hrs by immunoblotting analysis; format: cell-based; conditions: dose 10-1000 nM
[16] = target: T3, Protein cereblon-alpha tubulin (Homo sapiens); experiment: Protac activity at CRBN/alpha-tubulin in human HeLa cells assessed as reduction in alpha-tubulin level at 10 to 1000 nM incubated for 48 hrs by immunoblotting analysis; format: cell-based; conditions: dose 10-1000 nM
[17] = target: T2, Protein cereblon/Tubulin beta (Homo sapiens); experiment: Protac activity at CRBN/beta-tubulin in human A549 cells assessed as reduction in beta-tubulin level at 0.25 uM pretreated with CA-4 for 2 hrs followed by compound addition and measured after 24 hrs by immunoblotting analysis; format: cell-based
[18] = target: T3, Protein cereblon-alpha tubulin (Homo sapiens); experiment: Protac activity at CRBN/alpha-tubulin in human A549/Taxol cells assessed as reduction in alpha-tubulin level at 0.25 uM pretreated with CA-4 for 2 hrs followed by compound addition and measured after 48 hrs by immunoblotting analysis; format: cell-based
[19] = tested on: A549; experiment: Antitumor activity against human A549 cells xenografted in nude mouse assessed as decrease in tumor volume at 15 mg/kg, ip administered once every 2 days for 23 days by Vernier caliper method; format: functional, organism-based; conditions: time 23.0 day
[20] = target: T2, Protein cereblon/Tubulin beta (Homo sapiens); experiment: Protac activity at CRBN/beta-tubulin in human A549/Taxol cells assessed as reduction in beta-tubulin level at 0.25 uM pretreated with pomalidomide for 2 hrs followed by compound addition and measured after 48 hrs by immunoblotting analysis; format: cell-based
[21] = target: T2, Protein cereblon/Tubulin beta (Homo sapiens); experiment: Protac activity at CRBN/beta-tubulin in human A549 cells assessed as reduction in beta-tubulin level at 0.01 to 1 uM incubated for 48 hrs by immunoblotting analysis; format: cell-based; conditions: dose 0.01-1 µM
[22] = tested on: U-937; experiment: Antiproliferative activity against human U-937 cells incubated for 72 hrs; format: functional, cell-based; conditions: U-937, 72 h
[23] = target: T3, Protein cereblon-alpha tubulin (Homo sapiens); experiment: Protac activity at CRBN/alpha-tubulin in human A549 cells assessed as reduction in alpha-tubulin level at 0.25 uM after 72 hrs by immunoblotting analysis; format: cell-based; parameters: scale not given: the % may be the effect or the level left
[24] = target: T1, Protein cereblon/Tubulin beta-3 chain; experiment: Protac activity at CRBN/beta3-tubulin in human A549/Taxol cells assessed as reduction in beta3-tubulin level incubated for 48 hrs by immunoblotting analysis; format: cell-based
[25] = target: T3, Protein cereblon-alpha tubulin (Homo sapiens); experiment: Protac activity at CRBN/alpha-tubulin in human A549 cells assessed as reduction in alpha-tubulin level at 0.01 to 1 uM incubated for 48 hrs by immunoblotting analysis; format: cell-based; conditions: dose 0.01-1 µM
[26] = tested on: A549/TR; experiment: Induction of cell cycle arrest in human A549/Taxol cells assessed as accumulation of cells at S phase at 0.05 uM incubated for 24 hrs by PI staining based flow cytometry analysis (reference value: 2.85%); format: functional
[27] = Inhibition of cell growth in human MCF7/Taxol cells incubated for 72 hrs by SRB method; format: functional, cell-based
[28] = tested on: A549; experiment: Induction of apoptosis in human A549 cells assessed as increase in apoptotic rate at 0.002 uM incubated for 48 hrs by Annexin V-FITC/PI staining based flow cytometry analysis (reference value: 1.3%); format: functional
[29] = target: T1, Protein cereblon/Tubulin beta-3 chain; experiment: Protac activity at CRBN/beta3-tubulin in human MGC-803 cells assessed as reduction in beta3-tubulin level at 10 to 1000 nM incubated for 48 hrs by immunoblotting analysis; format: cell-based; conditions: dose 10-1000 nM
Target sequence in this assay (Q13509 whole entry, looked up): as the sequence (Q13509 whole entry, looked up) above
Target sequence in this assay (Q96SW2 whole entry, looked up): as the sequence (Q96SW2 whole entry, looked up) above

[30] = target: T3, Protein cereblon-alpha tubulin (Homo sapiens); experiment: Protac activity at CRBN/alpha-tubulin in human A549 cells assessed as reduction in alpha-tubulin level at 0.25 uM by immunoblotting analysis; format: cell-based; conditions: time 6-72 hrs, TDE = time-dependent effect
[31] = target: Protein cereblon/Tubulin beta; experiment: (§2) Protac activity at CRBN/beta-tubulin in human A549/Taxol cells assessed as reduction in beta-tubulin level incubated for 48 hrs by immunoblotting analysis; format: cell-based
[32] = target: T2, Protein cereblon/Tubulin beta (Homo sapiens); experiment: as §2; format: cell-based
[33] = target: T1, Protein cereblon/Tubulin beta-3 chain; experiment: Protac activity at CRBN/beta3-tubulin in human A549/Taxol cells assessed as reduction in beta3-tubulin level at 0.25 uM pretreated with pomalidomide for 2 hrs followed by compound addition and measured after 48 hrs by immunoblotting analysis; format: cell-based
Target sequence in this assay (Q13509 whole entry, looked up): as the sequence (Q13509 whole entry, looked up) above
Target sequence in this assay (Q96SW2 whole entry, looked up): as the sequence (Q96SW2 whole entry, looked up) above

[34] = target: T1, Protein cereblon/Tubulin beta-3 chain; experiment: Protac activity at CRBN/beta3-tubulin in human A549 cells assessed as reduction in beta3-tubulin level at 0.25 uM after 72 hrs by immunoblotting analysis; format: cell-based
Target sequence in this assay (Q13509 whole entry, looked up): as the sequence (Q13509 whole entry, looked up) above
Target sequence in this assay (Q96SW2 whole entry, looked up): as the sequence (Q96SW2 whole entry, looked up) above

[35] = tested on: A549; experiment: Induction of apoptosis in human A549 cells assessed as increase in apoptotic rate at 0.01 uM incubated for 48 hrs by Annexin V-FITC/PI staining based flow cytometry analysis (reference value: 1.3%); format: functional

## COc1ccc(/C=C\c2cc(OC)c(OC)c(OC)c2)cc1OC(=O)CCCNc1cccc2c1C(=O)N(C1CCC(=O)NC1=O)C2=O (stereo unspecified)
[1]
  Activity: 26.79%
[2]
  Activity: inactive
[3]
  IC50: 8 nM
[4]
  Activity: Active
[5]
  Activity: inactive
[6]
  DC50: 296 nM
[7]
  Activity: Dose-Dependent Effect
[8]
  Activity: Active
[9]
  IC50: 21 nM
[10]
  inhibition: Dose-Dependent Effect
[11]
  Activity: 68.36%
[12]
  Activity: Active
[13]
  IC50: 12 nM
[14]
  Activity: 31.1%
[15]
  Activity: Active
[16]
  Activity: Active
[17]
  Activity: inactive
[18]
  Activity: inactive
[19]
  Activity: Active
[20]
  Activity: inactive
[21]
  Activity: Active
[22]
  IC50: 18 nM
[23]
  Activity: 43.7%
[24]
  Activity: Dose-Dependent Effect
  DC50: 5 nM
[25]
  Activity: Active
[26]
  Activity: 3.85%
[27]
  IC50: 6 nM
[28]
  Activity: 7.23%
[29]
  Activity: Active
[30]
  Activity: Tde
[31]
  DC50: 972 nM
[32]
  Activity: Dose-Dependent Effect
[33]
  Activity: inactive
[34]
  Activity: inactive
[35]
  Activity: 23.1%
